What was measured:
Assay type in all cases: cell-based
[1] = system: A-549, lung cancer; test: In vitro cytotoxicity, MTT assay, A-549; conditions: A549, 96 h, A-549 human lung cancer cells, 4 days incubation
Description: (§1) Three human cancer cell lines (A-549, lung cancer; SK-BR-3, breast cancer; MKN-45, stomach cancer) were tested in MTT assay. These cell lines were grown in RPMI 1640 medium supplemented with penicillin-streptomycin (100 units/mL) and 10% heat-inactivated fetal bovine serum under standard culture condition (20% O2 and 5% CO2, 37° C.). Single-cell suspensions were prepared by trypsinization and pipette disaggregation. The number of cells for each cell line plated in 96-well microtiter plates was determined from the growth curve obtained in MTT assay. Test compounds were diluted from stock solution in DMSO into fresh medium to a 10× concentration. Cells were inoculated into each well in 180 μL of medium and eight different concentrations of 20 μL of test compounds were added to each well. The plates were then incubated for 4 days at 37° C., 5% CO2. After 4 days of culture, 0.1 mg (20 μL of 5 mg/mL) of MTT was added to each well. The plates were then incubated at 37° C. for 4 hours. After the plates were centrifuged at 1,000 rpm for 10 minutes, the supernatant was aspirated. 150 μL of DMSO was added to each well to solubilize formazan crystals. The plates were read immediately at 550 nm on Elisa reader (Dynatech, MR 5000).

[2] = system: SK-BR-3, breast cancer; test: In vitro cytotoxicity, MTT assay, SK-BR-3; conditions: 96 h, SK-BR-3 human breast cancer cells, 4 days incubation
Description: as §1

[3] = system: MKN-45, stomach cancer; test: In vitro cytotoxicity, MTT assay, MKN-45; conditions: 96 h, MKN-45 human stomach cancer cells, 4 days incubation
Description: as §1

Row | SMILES | IC50 [1] [µM] | IC50 [2] [µM] | IC50 [3] [µM]
1 | O=C(C=Cc1ccc(CNC(=O)c2ccc(N3CCN(Cc4cccnc4)CC3)cc2)cc1)NO [Example 1, N-[4-(2-Hydroxycarbamoylvinyl)benzyl]-4-(4-pyridin-3-ylmethylpiperazin-1-yl)benzamide] | 12 | 3.19 | 38.6
2 | O=C(C=Cc1ccc(CNC(=O)c2ccc(N3CCN(Cc4ccccn4)CC3)cc2)cc1)NO [Example 2, N-[4-(2-Hydroxycarbamoylvinyl)benzyl]-4-(4-pyridin-2-ylmethylpiperazin-1-yl)benzamide] | 1.65 | 0.27 | 2.94
3 | O=C(C=Cc1ccc(CNC(=O)c2ccc(N3CCN(Cc4ccncc4)CC3)cc2)cc1)NO [Example 3, N-[4-(2-Hydroxycarbamoylvinyl)benzyl]-4-(4-pyridin-4-ylmethylpiperazin-1-yl)benzamide] | 3.02 | 1.72 | 56.1
4 | O=C(C=Cc1ccc(CNC(=O)c2ccccn2)cc1)NO [Example 4, N-[4-(2-Hydroxycarbamoylvinyl)benzyl]picolinamide] | 2.23 | 0.87 | 3.64
5 | O=C(C=Cc1ccc(CNC(=O)c2ccc(N3CCCC3)cc2)cc1)NO [Example 5, N-[4-(2-Hydroxycarbamoylvinyl)benzyl]-4-pyrrolidin-1-ylbenzamide] | 0.35 | 0.11 | 0.8
6 | CN(C)c1ccc(C(=O)NCc2ccc(C=CC(=O)NO)cc2)cc1 [Example 6, 4-Dimethylamino-N-[4-(2-hydroxycarbamoylvinyl)benzyl]benzamide] | 0.48 | 0.16 | 0.83
7 | O=C(C=Cc1ccc(CNC(=O)c2cccnc2)cc1)NO [Example 7, N-[4-(2-Hydroxycarbamoylvinyl)benzyl]nicotinamide] | 2.89 | 1.28 | 4.98
8 | O=C(C=Cc1ccc(CNC(=O)OCc2cccnc2)cc1)NO [Example 8, [4-(2-Hydroxycarbamoylvinyl)benzyl]carbamic acid pyridin-3-ylmethyl ester] | 2.61 | 1.12 | 3.34
9 | O=C(C=Cc1ccc(CS(=O)(=O)Nc2cccnc2)cc1)NO [Example 9, N-Hydroxy-3-[4-(pyridin-3-ylsulfamoylmethyl)phenyl]acrylamide] | 37 | 22.9 | 62
10 | O=C(C=Cc1ccc(CS(=O)(=O)c2ccccc2)cc1)NO [Example 10, 3-[4-(Benzenesulfonylmethyl)phenyl]-N-hydroxyacrylamide] | 11.1 | 4.57 | 8.34

Source: patent publication US7495022B2, “α,β-unsaturated hydroxamic acid derivatives and their use as histone deacetylase inhibitors” (SK Chemicals Co., Ltd., priority 2002, dated 2009)
